Patent publication US4360458A, “Antitumor antibacterial agents” (priority 1980, dated 1982)
Converted amounts (≈) assume the structure as drawn.

Legend:
[1] = test system: L1210 leukemia; test: Antitumor activity, intraperitoneally implanted tumor; type: in vivo, mouse
Method: (§1) Comparative testing of BBM-928 components A, B, C and D with mitomycin C for antitumor activity was carried out with the intraperitoneally implanted tumors: P388 leukemia, L1210 leukemia, B16 melamoma, Lewis Lung (LL) carcinoma, and sarcoma 180 ascites (S180). […] By varying dosage, the minimum effective dose (MED) was determined which provided a median survival time value for the treated animals at least 1.25 times greater than a control group. This level of activity is considered to be a measure of significant antitumor activity. […] Expt. Path.

[2] = test system: Lewis Lung (LL) carcinoma; test: as above; type: in vivo, mouse
Method: as §1

[3] = test system: sarcoma 180 ascites (S180); test: as above; type: in vivo, mouse
Method: as §1

[4] = test system: B16 melamoma; test: as above; type: in vivo, mouse
Method: as §1

[5] = test system: P388 leukemia; test: as above; type: in vivo, mouse
Method: as §1

[6] = Intraperitoneal LD50, method of Van der Waerden
[7] = test system: B. anthracis A9504; type: cell-based; settings: nutrient agar pH 7, overnight 37° C.
[8] = test system: K. pneumoniae D-11; test: MIC, serial agar dilution method; type: cell-based; settings: nutrient agar pH 7, overnight 37° C.
Method: (§2) Antimicrobial activity of BBM-928 components was determined against a variety of bacteria and fungi by serial agar dilution method in nutrient agar at pH 7 using Steer's multi-inoculating apparatus. The inoculum size was standardized to apply a 0.0025-ml aliquot of test organisms containing approximately 10^4 cell/ml for all bacteria and fungi except acid-fast bacteria for which a 10^6 cell/ml suspension was used.

[9] = test system: M. phlei D88; test: MIC, serial agar dilution method; type: cell-based; settings: nutrient agar pH 7, overnight 37° C., 10^6 cell/ml inoculum
Method: as §2

[10] = test system: B. megaterium D2; test: MIC, serial agar dilution method; type: cell-based; settings: nutrient agar pH 7, overnight 37° C.
Method: as §2

[11] = test system: M. flavus D12; test: MIC, serial agar dilution method; type: cell-based; settings: nutrient agar pH 7, overnight 37° C.
Method: as §2

[12] = test system: C. neoformans; test: MIC, serial agar dilution method; type: cell-based; settings: nutrient agar pH 7, overnight 37° C.
Method: as §2

[13] = test system: P. vulgaris A9436; test: MIC, serial agar dilution method; type: cell-based; settings: nutrient agar pH 7, overnight 37° C.
Method: as §2

[14] = test system: S. marcescens A20019; test: MIC, serial agar dilution method; type: cell-based; settings: nutrient agar pH 7, overnight 37° C.
Method: as §2

[15] = test system: E. coli NIHJ; test: MIC, serial agar dilution method; type: cell-based; settings: nutrient agar pH 7, overnight 37° C.
Method: as §2

[16] = test system: P. morganii A9553; test: MIC, serial agar dilution method; type: cell-based; settings: nutrient agar pH 7, overnight 37° C.
Method: as §2

[17] = test system: M. smegmatis 607 D87; test: MIC, serial agar dilution method; type: cell-based; settings: nutrient agar pH 7, overnight 37° C., 10^6 cell/ml inoculum
Method: as §2

[18] = test system: P. aeruginosa A9930; test: MIC, serial agar dilution method; type: cell-based; settings: nutrient agar pH 7, overnight 37° C.
Method: as §2

[19] = test system: C. xerosis 53K-1; test: MIC, serial agar dilution method; type: cell-based; settings: nutrient agar pH 7, overnight 37° C.
Method: as §2

[20] = test system: B. subtilis PCI 219; test: MIC, serial agar dilution method; type: cell-based; settings: nutrient agar pH 7, overnight 37° C.
Method: as §2

[21] = test system: S. aureus 209P; test: MIC, serial agar dilution method; type: cell-based; settings: nutrient agar pH 7, overnight 37° C.
Method: as §2

[22] = test system: S. pyogenes S-23; test: MIC, serial agar dilution method; type: cell-based; settings: nutrient agar pH 7, overnight 37° C.
Method: as §2

[23] = test system: A. faecalis ATCC 8750; test: MIC, serial agar dilution method; type: cell-based; settings: nutrient agar pH 7, overnight 37° C.
Method: as §2

[24] = test system: C. arbicans IAM 4888; test: MIC, serial agar dilution method; type: cell-based; settings: nutrient agar pH 7, overnight 37° C.
Method: as §2

[25] = test system: S. lutea PCI 1001; test: MIC, serial agar dilution method; type: cell-based; settings: nutrient agar pH 7, overnight 37° C.
Method: as §2

[26] = test system: P. mirabilis A9554; test: MIC, serial agar dilution method; type: cell-based; settings: nutrient agar pH 7, overnight 37° C.
Method: as §2

[27] = test system: lysogenic bacterium; test: Prophage induction in lysogenic bacterium (ILB); type: cell-based; settings: up to a concentration of 100 mcg./ml
Method: The activity of prophage induction in lysogenic bacterium (ILB) was determined for BBM-928 components.

[28] = daily treatments from day 1 to day 9
[29] = single treatment on day 1, median survival time at least 1.25 times control

Structure (SMILES): CO[C@@]12[C@H](COC(N)=O)C3=C(C(=O)C(C)=C(N)C3=O)N1C[C@@H]1N[C@@H]12 [Mitomycin C, reference compound]
- Minimum Effective Dose (MED) [1, 28]: 0.3 mg/kg/day
- Minimum Effective Dose (MED) [1, 29]: 3 mg/kg/day
- Minimum Effective Dose (MED) [2, 28]: 0.3 mg/kg/day
- Minimum Effective Dose (MED) [2, 29]: 0.3 mg/kg/day
- Minimum Effective Dose (MED) [3, 28]: 0.03 mg/kg/day
- Minimum Effective Dose (MED) [3, 29]: 0.3 mg/kg/day
- Minimum Effective Dose (MED) [4, 28]: 0.3 mg/kg/day
- Minimum Effective Dose (MED) [4, 29]: 1 mg/kg/day
- Minimum Effective Dose (MED) [5, 28]: 0.1 mg/kg/day
- Minimum Effective Dose (MED) [5, 29]: 0.1 mg/kg/day

Structure (SMILES): COc1ccc2nc(C(=O)N[C@@H]3COC(=O)[C@H](C(C)(C)O)N(C)C(=O)CN(C)C(=O)CNC(=O)[C@@H]4[C@@H](OC(C)=O)CC=NN4C(=O)[C@H](NC(=O)c4nc5ccc(OC)cc5cc4O)COC(=O)[C@H](C(C)(C)O)N(C)C(=O)CN(C)C(=O)CNC(=O)[C@@H]4[C@@H](OC(C)=O)CC=NN4C3=O)c(O)cc2c1 [BBM-928A]
- LD50, i.p. [6, 28]: 0.013 mg/kg/day
- LD50, i.p. ([6]; single treatment on day 1): 0.13 mg/kg/day
- Activity Ratio (BBM-928A vs. Mitomycin C) [1, 28]: 100
- Minimum Effective Dose (MED) [1, 28]: 0.003 mg/kg/day
- Minimum Effective Dose (MED) [1, 29]: > 0.1 mg/kg/day
- Activity Ratio (BBM-928A vs. Mitomycin C) [2, 28]: 100
- Minimum Effective Dose (MED) [2, 28]: 0.003 mg/kg/day
- Activity Ratio (BBM-928A vs. Mitomycin C) ([2]; single treatment on day 1): 10
- Minimum Effective Dose (MED) [2, 29]: 0.03 mg/kg/day
- Activity Ratio (BBM-928A vs. Mitomycin C) [3, 28]: 100
- Minimum Effective Dose (MED) [3, 28]: 0.0001 mg/kg/day
- Activity Ratio (BBM-928A vs. Mitomycin C) ([3]; single treatment on day 1): 100
- Minimum Effective Dose (MED) [3, 29]: 0.003 mg/kg/day
- Activity Ratio (BBM-928A vs. Mitomycin C) [4, 28]: 100
- Minimum Effective Dose (MED) [4, 28]: 0.003 mg/kg/day
- Activity Ratio (BBM-928A vs. Mitomycin C) ([4]; single treatment on day 1): 300
- Minimum Effective Dose (MED) [4, 29]: 0.003 mg/kg/day
- Activity Ratio (BBM-928A vs. Mitomycin C) [5, 28]: 100
- Minimum Effective Dose (MED) [5, 28]: 0.001 mg/kg/day
- Activity Ratio (BBM-928A vs. Mitomycin C) ([5]; single treatment on day 1): 30
- Minimum Effective Dose (MED) [5, 29]: 0.003 mg/kg/day
- MIC [7]: 6.3 µg/mL (≈ 4.41 µM)
- MIC [8]: > 100 µg/mL
- MIC [9]: 12.5 µg/mL (≈ 8.76 µM)
- MIC [10]: 25 µg/mL (≈ 17.5 µM)
- MIC [11]: 12.5 µg/mL (≈ 8.76 µM)
- MIC [12]: 100 µg/mL (≈ 70.1 µM)
- MIC [13]: > 100 µg/mL
- MIC [14]: > 100 µg/mL
- MIC [15]: > 100 µg/mL
- MIC [16]: > 100 µg/mL
- MIC [17]: 25 µg/mL (≈ 17.5 µM)
- MIC [18]: > 100 µg/mL
- MIC [19]: 25 µg/mL (≈ 17.5 µM)
- MIC [20]: 25 µg/mL (≈ 17.5 µM)
- MIC [21]: 12.5 µg/mL (≈ 8.76 µM)
- MIC [22]: 6.3 µg/mL (≈ 4.41 µM)
- MIC [23]: > 100 µg/mL
- MIC [24]: > 100 µg/mL
- MIC [25]: 6.3 µg/mL (≈ 4.41 µM)
- MIC [26]: > 100 µg/mL
- ILB activity (prophage induction in lysogenic bacterium) [27]: No significant ILB activity

Structure (SMILES): COc1ccc2nc(C(=O)N[C@@H]3COC(=O)[C@H](C(C)(C)O)N(C)C(=O)CN(C)C(=O)CNC(=O)[C@@H]4[C@@H](O)CC=NN4C(=O)[C@H](NC(=O)c4nc5ccc(OC)cc5cc4O)COC(=O)[C@H](C(C)(C)O)N(C)C(=O)CN(C)C(=O)CNC(=O)[C@@H]4[C@@H](OC(C)=O)CC=NN4C3=O)c(O)cc2c1 [BBM-928B]
- LD50, i.p. ([6]; single treatment on day 1): 0.18 mg/kg/day
- Minimum Effective Dose (MED) [5, 29]: 0.1 mg/kg/day
- MIC [7]: 12.5 µg/mL (≈ 9.02 µM)
- MIC [8]: > 100 µg/mL
- MIC [9]: 12.5 µg/mL (≈ 9.02 µM)
- MIC [10]: 25 µg/mL (≈ 18 µM)
- MIC [11]: 25 µg/mL (≈ 18 µM)
- MIC [12]: > 100 µg/mL
- MIC [13]: > 100 µg/mL
- MIC [14]: > 100 µg/mL
- MIC [15]: > 100 µg/mL
- MIC [16]: > 100 µg/mL
- MIC [17]: 25 µg/mL (≈ 18 µM)
- MIC [18]: > 100 µg/mL
- MIC [19]: 50 µg/mL (≈ 36.1 µM)
- MIC [20]: 25 µg/mL (≈ 18 µM)
- MIC [21]: 25 µg/mL (≈ 18 µM)
- MIC [22]: 12.5 µg/mL (≈ 9.02 µM)
- MIC [23]: > 100 µg/mL
- MIC [24]: > 100 µg/mL
- MIC [25]: 12.5 µg/mL (≈ 9.02 µM)
- MIC [26]: > 100 µg/mL
- ILB activity (prophage induction in lysogenic bacterium) [27]: No significant ILB activity

Structure (SMILES): COc1ccc2nc(C(=O)N[C@@H]3COC(=O)[C@H](C(C)(C)O)N(C)C(=O)CN(C)C(=O)CNC(=O)[C@@H]4[C@@H](O)CC=NN4C(=O)[C@H](NC(=O)c4nc5ccc(OC)cc5cc4O)COC(=O)[C@H](C(C)(C)O)N(C)C(=O)CN(C)C(=O)CNC(=O)[C@@H]4[C@@H](O)CC=NN4C3=O)c(O)cc2c1 [BBM-928C]
- LD50, i.p. ([6]; single treatment on day 1): 0.81 mg/kg/day
- MIC [7]: 25 µg/mL (≈ 18.6 µM)
- MIC [8]: > 100 µg/mL
- MIC [9]: 12.5 µg/mL (≈ 9.31 µM)
- MIC [10]: 50 µg/mL (≈ 37.2 µM)
- MIC [11]: 50 µg/mL (≈ 37.2 µM)
- MIC [12]: 100 µg/mL (≈ 74.4 µM)
- MIC [13]: > 100 µg/mL
- MIC [14]: > 100 µg/mL
- MIC [15]: > 100 µg/mL
- MIC [16]: > 100 µg/mL
- MIC [17]: 25 µg/mL (≈ 18.6 µM)
- MIC [18]: > 100 µg/mL
- MIC [19]: > 100 µg/mL
- MIC [20]: 100 µg/mL (≈ 74.4 µM)
- MIC [21]: 50 µg/mL (≈ 37.2 µM)
- MIC [22]: 25 µg/mL (≈ 18.6 µM)
- MIC [23]: > 100 µg/mL
- MIC [24]: > 100 µg/mL
- MIC [25]: 50 µg/mL (≈ 37.2 µM)
- MIC [26]: > 100 µg/mL
- ILB activity (prophage induction in lysogenic bacterium) [27]: No significant ILB activity
